Literature values in US11273077B2, “Wound packing material comprising chemoeffector” (priority 2015, dated 2022).

Tests used:
Escherichia Coli = conditions: Tar and Tsr receptor mediated

In the case of `NCCCC(=O)O` [GABA, gamma-aminobutyrate], the “specificity of chemotaxis toward intermediates of amino acid metabolism” value (Pseudomonas Aeruginosa) is given as “high specificity”.

In the case of `N[C@@H](CO)C(=O)O` [L-serine], the “concentration that induces E. coli chemotaxis” value (Escherichia Coli) is given as “nanomolar range” and the “ligand specificity as chemoattractant” value (Enterobacteria) is given as “high ligand specificity”.
